Measured values taken from patent publication US4758518A, “D-2-haloalkanoic acid halidohydrolase” (Imperial Chemical Industries PLC, priority 1984, dated 1988).

Biological target: T1, D-2-HAA halidohydrolase from Pseudomonas putida NCIB 12018 (0.15 M fraction) (Pseudomonas putida, UniProt Q52086)
T1 construct: Activity towards D-2-CPA was found exclusively in the 0.15 M fraction; endogenous in cells; host or cells: Pseudomonas putida NCIB 12018 (cell-free extract from French pressure cell, fractionated on DEAE-Sephacel, 0.15 M KCl fraction)
Test: Inhibition of dehalogenation activity of the isolated D-2-HAA halidohydrolase (0.15 M DEAE-Sephacel fraction)
Assay type: biochemical
Conditions: at up to 1 M concentration of the substance; substrate (DL-2-CPA) or reaction product (lactate)
Method: Samples of the cell-free extracts were submitted in duplicate to polyacrylamide gel electrophoresis (Hardman et al, Journal of General Microbiology, 1981, Volume 123, pages 117-128). One of each pair of gels, after electrophoresis was incubated in a buffer solution containing 50 mM D-2-CPA and the other of each pair was incubated in a buffer solution containing 50 mM L-2-CPA as described in the aforesaid Hardman et al reference.
A portion (25 ml) of the cell free extract from Pseudomonas putida NCIB 12018 was loaded onto DEAE-Sephacel column (45 mm diameter, 60 cm high) pre-equilibrated with 25 mM Tris/Sulphate buffer at pH 7.5. The column was eluted with portions (200 ml) of this buffer neat and then containing successively 0.15 M, 0.2 M and 0.5 M potassium chloride at a flow rate of 100 ml/hour.
Each of the four fractions was assayed for halidohydrolase activity as described in Step 2 using L-2-CPA and D-2-CPA as substrates.
The halidohydrolase in the 0.15 M fraction has a pH optimum for activity on D-2-CPA at 8.8-9.0. It has good activity in organic (Tris/Sulphate) and inorganic (bicarbonate/carbonate) buffers, and has activity in unbuffered media, e.g. distilled water, with the pH controlled at 8.8-9.0.
The enzymatic activity is not inhibited by up to 1 M DL-2-CPA or by the products of the reaction, i.e. chloride ion and lactate, at up to 1 M concentration.

T1 sequence (Q52086 whole entry): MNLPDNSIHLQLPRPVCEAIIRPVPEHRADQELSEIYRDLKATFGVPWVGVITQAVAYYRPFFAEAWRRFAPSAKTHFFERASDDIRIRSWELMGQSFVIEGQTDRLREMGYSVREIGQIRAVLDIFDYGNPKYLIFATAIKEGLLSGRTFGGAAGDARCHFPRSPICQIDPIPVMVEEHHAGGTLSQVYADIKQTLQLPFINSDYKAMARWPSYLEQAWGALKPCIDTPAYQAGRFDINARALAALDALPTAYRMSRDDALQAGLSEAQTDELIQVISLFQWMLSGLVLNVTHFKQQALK

Structure (SMILES) | inhibition of the enzymatic activity
CC(O)C(=O)O (centres unmarked) [lactate] | not inhibited
CC(Cl)C(=O)O (racemic) [DL-2-CPA, 2-chloropropionic acid] | not inhibited
